Earlier results on one compound are cited in paper PMC3600422 (Journal of molecular biology, 2012).

One data set relates to cancer cells. As to conditions: Mcl-1 or Bfl-1 overexpressed.
Data set [1] deals with small cell lung carcinoma. The conditions noted are these: mouse models.

Take `CN(C)CC[C@H](CSc1ccccc1)Nc1ccc(S(=O)(=O)NC(=O)c2ccc(N3CCN(Cc4ccccc4-c4ccc(Cl)cc4)CC3)cc2)cc1[N+](=O)[O-]` [ABT-737]: the “Binding to Mcl-1” value with Mcl-1 was “do not bind to Mcl-1”. Besides, the “Inducing death in cancer cells” value with cancer cells is reported as “ineffective in inducing death in cancer cells when these anti-apoptotic proteins are overexpressed”. In the data set on Bfl-1, the “Binding to Bfl-1” value is “do not bind to Mcl-1 or Bfl-1”. In addition, the “Tumor regression” value in data set [1] is “can regress or eliminate small cell lung carcinoma”.
